Measurements reported in US12569170B2, “Paramagnetic sodium NMR macrocyclic-based biosensors, and associated methods” (Yale University, priority 2021, dated 2026).
Entries after “also recorded” stand apart in the source; their conditions may differ.

Legend:
[1] = Bulk magnetic susceptibility (BMS) contribution to chemical shift in phantoms; assay type: physicochemical; conditions: phantoms parallel, perpendicular to B0 and spherical
From the text: (§1) Upon translation of the present in vitro results to in vivo situations, certain confounding factors must be addressed. In the interstitial space, there are additional cations such as calcium (Ca^2+), magnesium (Mg^2+) and K^+ which will also bind to anionic contrast agents like TmDOTP^5−. However, physiologically their concentrations are low compared to Na^+. […] Additionally, there is a contribution to the chemical shift from bulk magnetic susceptibility (BMS) changes brought about by TmDOTP^5− in addition to the hyperfine shifts induced by interactions with Na^+. Experiments were performed on different DOTP^8− salts in phantoms parallel and perpendicular to the main magnetic field B0, and also spherical phantoms in which there was no BMS contribution. Only a small portion (˜2%) of the total chemical shift for TmDOTP^5− was due to BMS arising due to anisotropy of the paramagnetic susceptibility, and the remainder was the hyperfine shift.

[2] = Comparison of ^23Na shiftability and broadening potential of DOTP agents; assay type: physicochemical
U87-bearing rat brain = assay: In vivo ^23Na-MRSI line broadening in glioma models; conditions: glioma models, after agent infusion
From the text: FIGS. 10C-10F illustrates images according to certain embodiments of the disclosure. […] However, the ^23Na linewidth analysis by TmDOTP^5− is confounded by its high ^23Na shiftability. This peak separation in vivo overestimates the full-width at half-maximum (FWHM) calculations and exaggerates the measured ^23Na linewidths.
Slice 1 is most superficial, and slice 3 is the deepest. The tumor outline is depicted in white in all columns.
This establishes GdDOTP^5−-induced ^23Na linewidth broadening as a potential surrogate marker for the altered Na^+ biodistribution within tumors. Thus, in brain tumor models, TmDOTP^5− with ^23Na-NMR can separate Na^+ in intracellular, blood, and interstitial pools, while GdDOTP^5− can distinguish Na^+ within intracellular and extracellular (i.e., blood and interstitial) pools.
Because the majority of the present studies looked at ^23Na chemical shift, the line broadening capabilities of these paramagnetic agents were also interrogated. […] This is due to the high magnetic moment of Gd^3+ which contributes to some degree of anisotropy to the paramagnetic susceptibility. […] Crucially, this family of paramagnetic agents has allowed to insightful probing of the tumor microenvironment and drawing of significant conclusions about tumor aggressiveness based on spectroscopic analysis.

[3] = Effect of cation competition on ^23Na chemical shift and linewidth in vitro; assay type: physicochemical; conditions: for ^23Na chemical shift / ^23Na linewidth: 150 mM NaCl
Method: FIGS. 13A-13C depicts effect of cation competition on ^23Na chemical shift and linewidth induced by 2 mM TmDOTP^5−. (FIG. 13A)^23Na NMR spectra for 150 mM NaCl solutions containing 2 mM TmDOTP^5− alone, and in the presence of 2 mM Ca^2+, 2 mM Mg^2+, 10 mM K^+, and all three of these ions. Ca^2+, Mg^2+, and K^+ were introduced as the salts CaCl2, MgCl2, and KBr, respectively. These concentrations were all chosen to represent physiological concentrations in the interstitial space. […] Chemical shift ranged between 2.433 ppm (FIG. 13B, alone) and 2.352 ppm (FIG. 13B, all), representing only a 3% change in the presence of all competing cations. Linewidth ranged between 0.2433 ppm (FIG. 13C, alone) and 0.2285 ppm (FIG. 13C, all), representing only a 6% change in the presence of all competing cations.
as §1

[4] = cited from earlier work
[5] = 2 mM TmDOTP^5− with 2 mM Ca^2+, 2 mM Mg^2+ and 10 mM K^+ (all)

O=P([O-])([O-])CN1CCN(CP(=O)([O-])[O-])CCN(CP(=O)([O-])[O-])CCN(CP(=O)([O-])[O-])CC1.[Na+].[Na+].[Na+].[Na+].[Na+].[Tm+3] [TmDOTP^5−, sodium thulium (III) 1,4,7,10-tetraazacyclododecane-1,4,7,10-tetrakis(methylenephosphonate)]
portion of the total chemical shift due to BMS [1]: ~2%
broadening potential (sensitivity of linewidth to agent concentration), words [2]: high broadening potentials
shiftability (sensitivity of ^23Na chemical shift to agent concentration), words [2]: high shiftability
^23Na line broadening in tumor versus normal tissue (U87-bearing rat brain): most prominent within the tumor; also recorded: substantial ^23Na line broadening within tumor models compared to normal tissue
change in ^23Na chemical shift in the presence of all competing cations ([3]; 2 mM TmDOTP^5−, alone vs all): 3%
change in ^23Na linewidth in the presence of all competing cations ([3]; 2 mM TmDOTP^5−, alone vs all): 6%
^23Na chemical shift ([3]; 2 mM TmDOTP^5− alone): 2.433 ppm
^23Na linewidth ([3]; 2 mM TmDOTP^5− alone): 0.2433 ppm
^23Na chemical shift [3, 5]: 2.352 ppm
^23Na linewidth [3, 5]: 0.2285 ppm
changes in ^23Na chemical shift and linewidth by cationic competition ([3]; typical in vivo concentrations of Ca^2+, Mg^2+, K^+): negligible changes
TmDOTP^5− in the cortex and subcortex ([4]; infusion protocol with probenecid, without renal ligation): ~0.1 μmol TmDOTP^5−/g BW
in vivo concentrations in blood and interstitial spaces ([4]; rat, in vivo): 1 to 2 mM
